Reference: ChEMBL document CHEMBL1155389, “Selectively nonselective kinase inhibition: striking the right balance” (J Med Chem, 2010)

Columns and labels:
[1] = molecular target: Voltage-gated inwardly rectifying potassium channel KCNH2 (Homo sapiens, UniProt Q12809); experiment: Inhibition of ERG
[2] = molecular target: Cyclin-dependent kinase 5 (Homo sapiens, UniProt Q00535); experiment: Inhibition of CDK5
[3] = molecular target: Dual specificity tyrosine-phosphorylation-regulated kinase 1A (Homo sapiens, UniProt Q13627); experiment: Inhibition of DYRK1A
[4] = Inhibition of GSK3
Bcr/Abl fusion protein = Bcr/Abl fusion protein (Homo sapiens, UniProt P00519); format: protein assay
Description: Inhibition of wild type Bcr-Abl

[5] = molecular target: Mast/stem cell growth factor receptor Kit (Homo sapiens, UniProt P10721)
[6] = Inhibition of PDGFR
[7] = Inhibition of HDAC
[8] = molecular target: Tyrosine-protein kinase ABL1 (Homo sapiens, UniProt P00519)
Description: Inhibition of wild type Abl

[9] = molecular target: Proto-oncogene tyrosine-protein kinase Src (Homo sapiens, UniProt P12931)
[10] = molecular target: Nitric oxide synthase, inducible (Homo sapiens, UniProt P35228); experiment: Inhibition of iNOS
[11] = molecular target: Epidermal growth factor receptor (Homo sapiens, UniProt P00533)
[12] = Oral bioavailability in mouse; format: ADME, organism-based; conditions: in vivo
[13] = molecular target: Insulin-like growth factor 1 receptor (Homo sapiens, UniProt P08069)
[14] = molecular target: Vascular endothelial growth factor receptor 2 (Homo sapiens, UniProt P35968)
Dihydrofolate reductase = molecular target: T1, Dihydrofolate reductase (Homo sapiens, UniProt P00374); experiment: Inhibition of DHFR
T1 sequence (P00374 whole entry): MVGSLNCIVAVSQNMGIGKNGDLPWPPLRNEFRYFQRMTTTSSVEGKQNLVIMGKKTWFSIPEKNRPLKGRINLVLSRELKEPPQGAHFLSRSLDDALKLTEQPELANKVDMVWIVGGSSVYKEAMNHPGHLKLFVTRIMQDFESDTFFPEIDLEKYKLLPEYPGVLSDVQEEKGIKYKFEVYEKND

[15] = Inhibition of p38
[16] = molecular target: Mitogen-activated protein kinase 10 (Homo sapiens, UniProt P53779); experiment: Inhibition of JNK3
[17] = molecular target: Cyclin-dependent kinase 1 (Homo sapiens, UniProt P06493); experiment: Inhibition of CDK1
[18] = molecular target: Casein kinase I isoform alpha (Homo sapiens, UniProt P48729); experiment: Inhibition of CK1
[19] = molecular target: Glycogen synthase kinase-3 beta (Homo sapiens, UniProt P49841); experiment: Inhibition of GSK3-beta
[20] = molecular target: Receptor tyrosine-protein kinase erbB-2 (Homo sapiens, UniProt P04626)
[21] = molecular target: RAC-alpha serine/threonine-protein kinase (Homo sapiens, UniProt P31749)

Chain of Bcr/Abl fusion protein (P00519 whole entry, the tested form may be a part): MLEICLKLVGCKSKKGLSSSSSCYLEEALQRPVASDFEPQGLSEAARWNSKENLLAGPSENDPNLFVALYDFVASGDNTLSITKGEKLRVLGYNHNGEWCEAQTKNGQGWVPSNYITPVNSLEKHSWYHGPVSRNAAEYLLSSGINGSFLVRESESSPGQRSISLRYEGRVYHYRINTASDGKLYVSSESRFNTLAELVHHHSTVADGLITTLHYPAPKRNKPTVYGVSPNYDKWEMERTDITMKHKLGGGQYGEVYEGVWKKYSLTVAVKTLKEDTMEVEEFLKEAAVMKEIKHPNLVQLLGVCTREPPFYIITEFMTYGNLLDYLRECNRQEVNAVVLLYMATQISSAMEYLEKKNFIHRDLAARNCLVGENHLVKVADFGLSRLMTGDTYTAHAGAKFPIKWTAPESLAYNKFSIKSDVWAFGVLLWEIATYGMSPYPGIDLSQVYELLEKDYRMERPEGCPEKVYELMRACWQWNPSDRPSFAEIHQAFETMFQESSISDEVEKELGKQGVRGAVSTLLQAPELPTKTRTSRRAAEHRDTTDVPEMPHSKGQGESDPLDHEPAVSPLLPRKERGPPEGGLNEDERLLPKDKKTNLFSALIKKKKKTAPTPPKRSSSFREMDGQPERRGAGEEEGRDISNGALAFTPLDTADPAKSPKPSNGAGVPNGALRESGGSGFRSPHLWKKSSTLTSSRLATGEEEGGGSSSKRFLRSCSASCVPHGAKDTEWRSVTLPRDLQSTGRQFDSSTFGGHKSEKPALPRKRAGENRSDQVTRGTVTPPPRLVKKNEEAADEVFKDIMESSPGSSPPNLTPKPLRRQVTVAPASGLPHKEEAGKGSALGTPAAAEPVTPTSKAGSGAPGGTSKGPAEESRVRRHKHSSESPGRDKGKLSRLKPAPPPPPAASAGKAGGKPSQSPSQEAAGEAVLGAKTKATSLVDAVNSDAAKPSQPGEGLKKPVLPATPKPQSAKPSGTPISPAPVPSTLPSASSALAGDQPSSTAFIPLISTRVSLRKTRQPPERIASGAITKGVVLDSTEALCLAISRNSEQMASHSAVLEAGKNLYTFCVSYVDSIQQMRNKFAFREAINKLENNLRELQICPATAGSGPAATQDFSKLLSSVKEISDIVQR
Chain of Bcr/Abl fusion protein (P11274 whole entry, further chain, the tested form may be a part): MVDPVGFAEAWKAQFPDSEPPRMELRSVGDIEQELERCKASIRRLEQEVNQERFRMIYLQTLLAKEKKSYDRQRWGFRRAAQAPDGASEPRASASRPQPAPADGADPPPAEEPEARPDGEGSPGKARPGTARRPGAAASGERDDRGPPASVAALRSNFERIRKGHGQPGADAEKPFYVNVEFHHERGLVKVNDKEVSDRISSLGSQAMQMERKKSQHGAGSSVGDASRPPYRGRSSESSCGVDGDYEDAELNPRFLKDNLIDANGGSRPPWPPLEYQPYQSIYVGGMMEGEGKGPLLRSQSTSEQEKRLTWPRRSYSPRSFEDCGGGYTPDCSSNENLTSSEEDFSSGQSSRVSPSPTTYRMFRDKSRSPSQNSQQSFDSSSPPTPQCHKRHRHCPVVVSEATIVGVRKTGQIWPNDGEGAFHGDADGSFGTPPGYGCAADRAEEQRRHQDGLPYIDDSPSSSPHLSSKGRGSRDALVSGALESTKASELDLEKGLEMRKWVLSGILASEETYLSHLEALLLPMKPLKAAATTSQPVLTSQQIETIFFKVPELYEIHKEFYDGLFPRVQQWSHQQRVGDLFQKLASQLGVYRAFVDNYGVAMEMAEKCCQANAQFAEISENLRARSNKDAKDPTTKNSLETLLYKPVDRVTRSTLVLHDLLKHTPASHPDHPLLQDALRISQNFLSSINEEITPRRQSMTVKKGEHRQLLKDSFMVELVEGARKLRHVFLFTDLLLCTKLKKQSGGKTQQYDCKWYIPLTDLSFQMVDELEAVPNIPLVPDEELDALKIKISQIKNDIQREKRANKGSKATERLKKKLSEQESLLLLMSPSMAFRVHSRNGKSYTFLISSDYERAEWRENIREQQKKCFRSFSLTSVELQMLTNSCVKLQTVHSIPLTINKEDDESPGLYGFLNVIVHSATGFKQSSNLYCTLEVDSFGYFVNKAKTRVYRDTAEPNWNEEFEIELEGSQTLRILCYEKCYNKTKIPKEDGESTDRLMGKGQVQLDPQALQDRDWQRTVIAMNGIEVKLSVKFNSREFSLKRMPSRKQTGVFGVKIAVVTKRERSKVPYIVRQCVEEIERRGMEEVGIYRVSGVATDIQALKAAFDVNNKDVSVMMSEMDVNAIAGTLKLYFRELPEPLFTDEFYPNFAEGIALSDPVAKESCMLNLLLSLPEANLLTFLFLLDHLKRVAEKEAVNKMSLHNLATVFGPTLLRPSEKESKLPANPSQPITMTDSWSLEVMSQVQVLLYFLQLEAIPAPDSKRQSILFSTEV
Chain of Insulin-like growth factor 1 receptor (P08069 31-736 limits assumed): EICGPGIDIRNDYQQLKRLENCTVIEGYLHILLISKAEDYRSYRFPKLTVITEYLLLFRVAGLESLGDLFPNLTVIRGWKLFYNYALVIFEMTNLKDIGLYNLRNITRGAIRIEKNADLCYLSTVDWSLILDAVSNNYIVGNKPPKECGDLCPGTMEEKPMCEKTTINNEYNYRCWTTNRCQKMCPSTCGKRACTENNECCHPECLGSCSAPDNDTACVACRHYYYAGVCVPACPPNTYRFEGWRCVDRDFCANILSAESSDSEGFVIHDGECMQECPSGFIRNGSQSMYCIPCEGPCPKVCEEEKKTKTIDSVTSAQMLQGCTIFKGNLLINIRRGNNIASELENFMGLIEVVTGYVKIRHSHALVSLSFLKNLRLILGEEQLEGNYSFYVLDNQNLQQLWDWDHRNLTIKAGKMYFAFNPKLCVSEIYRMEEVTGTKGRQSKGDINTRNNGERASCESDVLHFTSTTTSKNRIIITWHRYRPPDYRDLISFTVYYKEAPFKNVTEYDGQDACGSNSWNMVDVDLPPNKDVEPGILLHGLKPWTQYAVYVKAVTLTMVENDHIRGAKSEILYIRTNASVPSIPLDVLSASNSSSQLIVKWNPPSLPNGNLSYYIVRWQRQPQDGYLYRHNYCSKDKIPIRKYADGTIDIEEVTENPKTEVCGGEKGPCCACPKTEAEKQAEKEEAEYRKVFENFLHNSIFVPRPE
Chain of Insulin-like growth factor 1 receptor (P08069 741-1367 limits assumed): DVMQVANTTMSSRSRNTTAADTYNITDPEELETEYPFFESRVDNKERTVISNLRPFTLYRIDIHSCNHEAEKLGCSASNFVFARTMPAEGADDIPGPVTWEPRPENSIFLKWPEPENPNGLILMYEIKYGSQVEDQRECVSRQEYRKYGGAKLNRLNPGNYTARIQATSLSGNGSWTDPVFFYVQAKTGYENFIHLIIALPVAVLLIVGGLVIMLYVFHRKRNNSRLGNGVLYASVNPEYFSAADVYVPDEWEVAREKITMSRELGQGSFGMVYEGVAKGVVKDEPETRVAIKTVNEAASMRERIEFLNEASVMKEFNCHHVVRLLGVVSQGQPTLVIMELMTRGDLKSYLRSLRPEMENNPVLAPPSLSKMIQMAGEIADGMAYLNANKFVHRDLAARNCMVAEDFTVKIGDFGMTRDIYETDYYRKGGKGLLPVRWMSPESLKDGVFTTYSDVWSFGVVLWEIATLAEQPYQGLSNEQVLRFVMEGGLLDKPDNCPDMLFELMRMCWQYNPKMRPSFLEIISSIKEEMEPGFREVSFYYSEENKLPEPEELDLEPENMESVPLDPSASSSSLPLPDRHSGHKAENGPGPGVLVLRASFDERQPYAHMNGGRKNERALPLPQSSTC
Chain of Epidermal growth factor receptor (P00533 whole entry): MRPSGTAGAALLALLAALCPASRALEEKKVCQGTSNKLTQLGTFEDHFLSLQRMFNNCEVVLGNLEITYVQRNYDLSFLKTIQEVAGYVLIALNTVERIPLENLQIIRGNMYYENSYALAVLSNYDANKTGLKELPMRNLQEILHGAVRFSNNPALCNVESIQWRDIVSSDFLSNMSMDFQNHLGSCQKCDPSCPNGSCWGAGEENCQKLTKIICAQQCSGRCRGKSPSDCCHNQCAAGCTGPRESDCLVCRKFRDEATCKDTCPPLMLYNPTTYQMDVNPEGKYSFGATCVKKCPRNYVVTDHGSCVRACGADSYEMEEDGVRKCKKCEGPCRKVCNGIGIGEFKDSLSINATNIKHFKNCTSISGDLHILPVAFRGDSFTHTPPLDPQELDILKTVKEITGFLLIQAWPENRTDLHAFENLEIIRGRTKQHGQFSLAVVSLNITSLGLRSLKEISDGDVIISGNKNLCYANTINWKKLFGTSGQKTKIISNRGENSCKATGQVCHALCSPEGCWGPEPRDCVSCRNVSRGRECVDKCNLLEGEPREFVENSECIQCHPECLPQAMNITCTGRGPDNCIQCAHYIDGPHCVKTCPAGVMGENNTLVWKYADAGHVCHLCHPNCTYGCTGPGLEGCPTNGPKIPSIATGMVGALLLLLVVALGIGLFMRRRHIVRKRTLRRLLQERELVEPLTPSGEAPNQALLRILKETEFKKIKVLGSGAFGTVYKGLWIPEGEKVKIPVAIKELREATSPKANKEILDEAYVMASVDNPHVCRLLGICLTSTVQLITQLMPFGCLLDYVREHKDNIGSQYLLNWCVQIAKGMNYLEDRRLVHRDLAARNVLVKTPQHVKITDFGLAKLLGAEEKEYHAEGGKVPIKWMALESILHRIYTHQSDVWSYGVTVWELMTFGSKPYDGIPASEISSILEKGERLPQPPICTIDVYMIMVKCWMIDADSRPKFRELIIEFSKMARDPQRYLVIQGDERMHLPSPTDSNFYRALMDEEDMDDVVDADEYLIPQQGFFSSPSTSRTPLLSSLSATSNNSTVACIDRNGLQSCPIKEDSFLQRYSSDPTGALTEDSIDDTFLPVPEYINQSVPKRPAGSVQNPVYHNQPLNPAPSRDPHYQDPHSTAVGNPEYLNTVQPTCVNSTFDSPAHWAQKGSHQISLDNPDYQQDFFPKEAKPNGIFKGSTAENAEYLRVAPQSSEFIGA
Chain of Tyrosine-protein kinase ABL1 (P00519 whole entry): as the sequence (P00519 whole entry, the tested form may be a part) above

## c1ccc(-c2cc3c(ccn4cnnc34)nc2-c2ccc(CN3CCC(c4nnc(-c5ccccn5)[nH]4)CC3)cc2)cc1
[1]
  IC50: > 10000 nM

## N#Cc1c(N)cc2[nH]nc(N)c2c1-c1ccccc1
[2]
  IC50: 11000 nM
[3]
  IC50: 410 nM
[4]
  IC50: 15000 nM

## Cc1ccc(-c2ccnc(Nc3cc(NC(=O)c4ccc(CN5CCN(C)CC5)cc4)ccc3C)n2)cn1
Bcr/Abl fusion protein
  IC50: 11000 nM
[5]
  IC50: 43 nM

## Cc1ccc(NC(=O)c2ccc(CN3CCN(C)CC3)cc2)cc1Nc1nccc(-c2cccnc2)n1 [IMATINIB]
[6]
  IC50: 39 nM
[7]
  IC50: > 100 nM

## Cc1ccc(NC(=O)c2ccc(/C=C/C(=O)NO)cc2)cc1Nc1nc(-c2cccnc2)cs1
Bcr/Abl fusion protein
  IC50: 2700 nM
[7]
  IC50: 80 nM

## Cc1cn(-c2cc(NC(=O)c3ccc(C)c(/C=C/N4CNc5c(NC6CC6)ncnc54)c3)cc(C(F)(F)F)c2)cn1
Bcr/Abl fusion protein
  IC50: 8 nM
[8]
  IC50: 25 nM

## Cc1cc2c(Nc3ccc4nc(N)sc4c3)c(C#N)cnc2cc1OCCN1CCCCC1
[9]
  IC50: 15 nM
[10]
  IC50: 313000 nM

## COc1ccccc1Cc1nc2ccc(-c3nn([C@H]4CC[C@H](C5CCN(C)CC5)CC4)c4ncnc(N)c34)cc2[nH]1
[11]
  IC50: 58 nM
[12]
  bioavailability: 12%
[13]
  IC50: 81 nM

## C#Cc1cccc(Nc2ncnc3cc(OC)c(OCCCCCCC(=O)NO)cc23)c1 [CUDC-101]
[7]
  IC50: 4.4 nM

## Cc1cn(-c2cc(NC(=O)c3ccc(C)c(Nc4nccc(-c5cccnc5)n4)c3)cc(C(F)(F)F)c2)cn1 [NILOTINIB]
[6]
  IC50: 25 nM

## C/C(=C/c1coc2nc(N)nc(N)c12)c1cccc2ccccc12
[14]
  IC50: 2000 nM
Dihydrofolate reductase
  IC50: 10000 nM

## c1ccc(-c2noc(CN3CCCCC3)c2-c2ccnc(NC3CCCCC3)n2)cc1
[15]
  IC50: 2 nM
[16]
  IC50: 26 nM

## Nc1ncnc2c1c(-c1cnc3[nH]ccc3c1)nn2C1CCCC1
[6]
  IC50: 2 nM

## CCC(CO)Nc1nc(Nc2cccc(-c3ccccn3)c2)c2ncn(C(C)C)c2n1 (stereo unspecified)
[17]
  IC50: 220 nM
[18]
  IC50: 14 nM
[19]
  IC50: 4100 nM

## COCCCN1CCC([C@H]2CC[C@H](n3nc(-c4ccc5nc(Cc6ccccc6Cl)[nH]c5c4)c4c(N)ncnc43)CC2)CC1
[11]
  IC50: 58 nM
[20]
  IC50: 54 nM
[13]
  IC50: 81 nM

## Cn1nnnc1-c1cnc(-c2ccc(CN3CCC(n4c(=O)[nH]c5ccccc54)CC3)cc2)c(-c2ccccc2)c1
[21]
  IC50: 273 nM
